Data set [1] relates to human red blood cells (hRBC). As to the kind of experiment: Hemolysis of human red blood cells. In kind it is cell-based. As to conditions: 20% hRBC, 1 h, 37° C. An outline of the steps: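 Washed fresh human erythrocytes (20% v/v, ~0.9×10^9 cells/mL final) incubated with compound at 100 μM for 1 h at 37 °C with shaking. Supernatant OD540 read; % hemolysis expressed relative to 2.5% Triton X-100 lysis (100%), with PBS/0.001% acetic acid as 0%.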

Data set [2] is described as follows: Plasma stability in mouse plasma. In kind it is in vitro ADME. To be noted: mouse plasma, 37° C.; for remaining at 24 h, 10 μM: 1440 min, read-out: mouse pl. cpd left at 1440 min. An outline of the steps: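 Peptides (1 mM DMSO/H2O stock) were spiked into human or mouse plasma in triplicate and incubated at 37 °C, sampling from 0 to 1440 min. Samples were quenched in formic acid/acetonitrile and analysed by LC/MS MRM. Remaining percent of t=0 was calculated and T1/2 derived by trend fitting.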

A short description of data set [3]: Cytotoxicity, MTT reduction assay, HELA cells. Format: cell-based. To be noted: human, HELA cells (Acc57), 12.5-50 μM. An outline of the steps:
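HELA (4000/well) and COS-7 (3400/well) cells were grown 24 h, then exposed 48 h at 37° C to peptides at 12.5, 25 and 50 μM in triplicate. MTT reduction read at 595 nm; growth % relative to time-zero, and GI50 interpolated by trend line.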
(Formazan colour is commonly taken as a measure of viable cells.)

Numbered stars: 1 amine (or outer) side, 2 acyl side, 3 side chain; on linkers, the order of the positions; unused ones are H or OH. Bridge positions count the residues as written; N and C are the ends. Square brackets hold non-standard residues; d marks the D form. Side chains are listed from the residue outwards. Peptide text beside a SMILES is read from it. * marks the point of attachment. γGlu = O=C(O)[C@H](CCC(=O)[*:2])N[*:1]; Palmitoyl = CCCCCCCCCCCCCCCC(=O)*; Myristoyl = CCCCCCCCCCCCCC(=O)*; Lauroyl = CCCCCCCCCCCC(=O)*; Dab = NCC[C@H](N)C(=O)O Where only a bound is given, the exact number is not on record here.

For the compound `CCCCCCCCCCCC(=O)NCCCC[C@@H]1NC(=O)[C@H](Cc2ccc(O)cc2)NC(=O)[C@@H]2CSSC[C@H](NC(=O)[C@H](C)NC(=O)[C@H](Cc3c[nH]cn3)NC(=O)[C@H](Cc3ccc(O)cc3)NC(=O)[C@@H]3CCCN3C(=O)[C@H]3CCCN3C(=O)[C@H](CCCCN)NC1=O)C(=O)N[C@@H](CCCNC(=N)N)C(=O)N[C@@H](C)C(=O)N1CCC[C@@H]1C(=O)N[C@@H](CCN)C(=O)N[C@@H](CCCNC(=N)N)C(=O)N[C@@H](Cc1ccc(O)cc1)C(=O)N2` [Ex. 17] (cyclo(YHACRA[dP][Dab]RYCYK(Lauroyl)K[dP]P); disulfide 4-11), in data set [1], the “Hemolysis at 100 μM” value is 4.3%. Besides, the remaining at 24 h, 10 μM in data set [2] is 59%. In data set [2] (up to 1440 min, read-out: mouse pl. T1/2), the half-life at 10 μM was 19.5 h. Further, the GI50 at 48 h in data set [3] is above 44 µM.
With `CCCCCCCCCCCCCCCC(=O)NCCCC[C@@H]1NC(=O)[C@H](Cc2ccc(O)cc2)NC(=O)[C@@H]2CSSC[C@H](NC(=O)[C@H](Cc3ccc(O)cc3)NC(=O)[C@H](Cc3c[nH]cn3)NC(=O)[C@H](Cc3ccc(O)cc3)NC(=O)[C@@H]3CCCN3C(=O)[C@H]3CCCN3C(=O)[C@H](CCCCN)NC1=O)C(=O)N[C@@H](CO)C(=O)N[C@@H](C)C(=O)N1CCC[C@@H]1C(=O)N[C@@H](CCN)C(=O)N[C@@H](CCCNC(=N)N)C(=O)N[C@@H](Cc1ccc(O)cc1)C(=O)N2` [Ex. 20] (cyclo(YHYCSA[dP][Dab]RYCYK(Palmitoyl)K[dP]P); disulfide 4-11), in data set [1], the “Hemolysis at 100 μM” value was found to be 9.1%. The remaining at 24 h, 10 μM in data set [2] stood at 83%. Further, the “mouse pl. T1/2” value in data set [2] (up to 1440 min) was 24 h. Moreover, the GI50 at 48 h in data set [3] was above 31 µM.
For `CCCCCCCCCCCC(=O)N[C@@H](CCC(=O)NCCCC[C@@H]1NC(=O)[C@H](Cc2ccc(O)cc2)NC(=O)[C@@H]2CSSC[C@H](NC(=O)[C@H](Cc3ccc(O)cc3)NC(=O)[C@H](Cc3c[nH]cn3)NC(=O)[C@H](Cc3ccc(O)cc3)NC(=O)[C@@H]3CCCN3C(=O)[C@H]3CCCN3C(=O)[C@H](CCCCN)NC1=O)C(=O)N[C@@H](CO)C(=O)N[C@@H](C)C(=O)N1CCC[C@@H]1C(=O)N[C@@H](CCN)C(=O)N[C@@H](CCCNC(=N)N)C(=O)N[C@@H](Cc1ccc(O)cc1)C(=O)N2)C(=O)O` [Ex. 25] (cyclo(YHYCSA[dP][Dab]RYCYK([γGlu-Lauroyl])K[dP]P); disulfide 4-11), in that order: 1.0%, 74%, 24 h and above 43 µM.
As for `CCCCCCCCCCCC(=O)N[C@@H](CCC(=O)NCCCC[C@@H]1NC(=O)[C@H](Cc2ccc(O)cc2)NC(=O)[C@@H]2CSSC[C@H](NC(=O)[C@H](C)NC(=O)[C@H](Cc3c[nH]cn3)NC(=O)[C@H](Cc3ccc(O)cc3)NC(=O)[C@@H]3CCCN3C(=O)[C@H]3CCCN3C(=O)[C@H](CCCCN)NC1=O)C(=O)N[C@@H](CCCNC(=N)N)C(=O)N[C@@H](C)C(=O)N1CCC[C@@H]1C(=O)N[C@@H](CCN)C(=O)N[C@@H](CCCNC(=N)N)C(=O)N[C@@H](Cc1ccc(O)cc1)C(=O)N2)C(=O)O` [Ex. 26] (cyclo(YHACRA[dP][Dab]RYCYK([γGlu-Lauroyl])K[dP]P); disulfide 4-11), the “Hemolysis at 100 μM” value in data set [1] worked out at 1.2%. Moreover, in data set [2], the remaining at 24 h, 10 μM was determined as 65%. The “mouse pl. T1/2” value in data set [2] (up to 1440 min) came out at 24 h. Also, in data set [3], the GI50 at 48 h was above 50 µM.
As to `CCCCCCCCCCCCCC(=O)N[C@@H](CCC(=O)NCCCC[C@@H]1NC(=O)[C@H](Cc2ccc(O)cc2)NC(=O)[C@@H]2CSSC[C@H](NC(=O)[C@H](Cc3ccc(O)cc3)NC(=O)[C@H](Cc3c[nH]cn3)NC(=O)[C@H](Cc3ccc(O)cc3)NC(=O)[C@@H]3CCCN3C(=O)[C@H]3CCCN3C(=O)[C@H](CCCCN)NC1=O)C(=O)N[C@@H](CO)C(=O)N[C@@H](C)C(=O)N1CCC[C@@H]1C(=O)N[C@@H](CCN)C(=O)N[C@@H](CCCNC(=N)N)C(=O)N[C@@H](Cc1ccc(O)cc1)C(=O)N2)C(=O)O` [Ex. 28] (cyclo(YHYCSA[dP][Dab]RYCYK([γGlu-Myristoyl])K[dP]P); disulfide 4-11), in data set [1], the “Hemolysis at 100 μM” value turned out to be 1.9%. In addition, in data set [2], the remaining at 24 h, 10 μM worked out at 78%. The “mouse pl. T1/2” value in data set [2] (up to 1440 min) worked out at 24 h. Also, the 50% growth inhibitory concentration (GI50) at 48 h in data set [3] was above 39 µM.
For `CCCCCCCCCCCCCCCC(=O)N[C@@H](CCC(=O)NCCCC[C@@H]1NC(=O)[C@H](Cc2ccc(O)cc2)NC(=O)[C@@H]2CSSC[C@H](NC(=O)[C@H](Cc3ccc(O)cc3)NC(=O)[C@H](Cc3c[nH]cn3)NC(=O)[C@H](Cc3ccc(O)cc3)NC(=O)[C@@H]3CCCN3C(=O)[C@H]3CCCN3C(=O)[C@H](CCCCN)NC1=O)C(=O)N[C@@H](CO)C(=O)N[C@@H](C)C(=O)N1CCC[C@@H]1C(=O)N[C@@H](CCN)C(=O)N[C@@H](CCCNC(=N)N)C(=O)N[C@@H](Cc1ccc(O)cc1)C(=O)N2)C(=O)O` [Ex. 29] (cyclo(YHYCSA[dP][Dab]RYCYK([γGlu-Palmitoyl])K[dP]P); disulfide 4-11), in that order: 5.4%, 53%, 24 h and above 47 µM.

Broadly, the GI50 is the concentration that inhibits growth by half. A higher GI50 goes with less potent growth inhibition.
